Source: patent US20230398586A1, “METHOD FOR DECOMPOSING PLANT MATTER” (DANSTAR FERMENT AG, priority 2020, published 2023)

Tests used:
Type in all cases: in vivo
[1] = test system: apple tree leaves on the orchard floor; assay: Visual in-field leaf degradation rating per grid, first trial
Description: The objective of this trial was to establish the potential of soluble yeast cell wall derivatives to accelerate degradation of apple tree leaves on the orchard floor thereby reducing overwintering potential of apple scab (Venturia inaequalis).
(§1) At 95% leaf drop, two populations of autumn leaves were collected: 1) yellow leaves (yellow leaves ready to fall; harvested from the treatment trees and placed into wire grids; and 2) brown leaves (brown leaves which have fallen but not yet showing visible degradation collected from the orchard floor and placed into wire grids).
(§2) The following treatments were tested: 1) untreated control (no application); 2) water control (1000 L water per hectare); 3) urea ([…] per 1000 L per hectare); and 4) soluble yeast cell wall derivatives (Lallemand) (5 kg dry matter/ha; 10 L/ha in 1000 L water per hectare).
(§3) Treatments were applied to the soil using a non-mechanised back pack sprayer as applicator, in a one meter radius around the tree stem (grids were placed within this circumference).
(§4) Treatment application times: 1) 95% leaf drop; 2) 95% leaf drop+two weeks; and 3) 95% leaf drop+four weeks.
All evaluations were done separately on each of the two leaf populations selected at the start of the trial.
Leaf degradation according to a 0-9 scale, on a per grid estimate, reflecting the surface area which has decomposed; with “0” representing no degradation, “3” being approx. 30% degradation, “6” representing 60% degradation, and “9” complete degradation. […]

[2] = test system: apple tree leaves on the orchard floor; assay: Leaf area degradation by leaf area scanner, first trial; conditions: for Average leaf area reduction: leaf area scanning method
Protocol: as §1, §2, §3, §4
Leaf degradation was expressed as the reduction in leaf area (mm^2) based on readings taken with a leaf area scanner (LI-COR, LI-3050C Transparent Belt Conveyor). Samples were placed onto a transparent conveyor belt which allowed the leaf to pass through the scanning head. The accumulated leaf area was determined by passing all leaves of a grid through the scanner and subsequently an average per leaf area (mm 2).

[3] = test system: Venturia inaequalis ascospores; assay: Ascospore projection from overwintered leaves (Kollar waterbath protocol); conditions: M2: one application at 50 kg/ha (30% fallen leaves); untreated control 139
Protocol: The objective of this trial was to evaluate the efficacy of the soluble yeast cell wall derivatives on their ability to reduce the apple scab inoculum (i.e. ascospores) on overwintering leaves.
The trial was carried out on a “Gala” apple variety in an orchard severely affected by apple scab.
The following treatments were tested: M1: untreated control; M2: urea, one application at […]: soluble yeast cell wall derivatives (Lallemand), one application at 5 l/ha (30% fallen leaves); M4: soluble yeast cell wall derivatives, one application at 10 l/ha (30% fallen leaves); M5: soluble yeast cell wall derivatives, two applications at 10 l/ha (first application at beginning of leaf drop and second application at 30% fallen leaves). Each treatment had three replicates.
One batch of 100 g of leaves per replication was placed in plastic mesh bags with fine mesh on the outdoor ground, in orchard conditions. Treatments were applied in November to the trees using a backpack sprayer (SOLO) at a volume of 1000 L/ha. […]
The ascospore projection of Venturia inaequalis was evaluated in March. […]
All meteorological records came from the SudAgroMétéo station on the SudExpé Marsillargues site. […] The results were analyzed using a one-way ANOVA and multiple comparisons of the mean were analysed using a Tukey post-hoc test at 5% threshold. […]

[4] = brown leaves, 4 weeks after the last application
[5] = brown leaves, 8 weeks after the last application
[6] = brown leaves, 10 weeks after the last application
[7] = yellow leaves, 6 weeks after the last application
[8] = yellow leaves, 8 weeks after the last application
[9] = yellow leaves, 10 weeks after the last application

`NC(N)=O` [urea] was tested, and the “Average leaf degradation score in the sampling grids, degradation category (scale 0-9)” value (“Average leaf degradation score” below) [1, 4] was 1.0, the “percentage by which leaf degradation of a treatment exceeded the water control” value (shortened to “percentage by which leaf degradation”) [1, 4] was “(+43%)” and the “Average leaf degradation score” value ([1]; brown leaves, 6 weeks after the last application) was 2.2 ab. For the same molecule, the “Average leaf degradation score” value [1, 5] was 3.2 ab, the “percentage by which leaf degradation” value [1, 5] was “(+60%)” and the “Average leaf degradation score” value [1, 6] was 4.3 ab. The “percentage by which leaf degradation” value [1, 6] was “(+34%)”, the “Average leaf degradation score” value ([1]; brown leaves, 12 weeks after the last application) was 5.7 ab and the leaf degradation reached ([1]; first trial, 12 weeks after the last application, cold weather, lack of rains) was at most 50%. The “Average leaf degradation score” value ([1]; yellow leaves, 4 weeks after the last application) was 1.3a, the “Average leaf degradation score” value [1, 7] was 2.5a and the “percentage by which leaf degradation” value [1, 7] was “(+39%)”. The “Average leaf degradation score” value [1, 8] was 3.2a, the “percentage by which leaf degradation” value [1, 8] was “(+14%)” and the “Average leaf degradation score” value [1, 9] was 3.8 a. For the same molecule, the “percentage by which leaf degradation” value [1, 9] was “(+9%)”, the “Average leaf degradation score” value ([1]; yellow leaves, 12 weeks after the last application) was 5.3ab and the “Leaf area reduction relative to the water control” value ([2]; brown leaves) was “(+52%)”. The “Average leaf area reduction” value ([2]; brown leaves) was 14.1 bc mm^2, the “Leaf area reduction relative to the water control” value ([2]; yellow leaves) was “(+10%)” and the “Average leaf area reduction” value ([2]; yellow leaves) was 15.0 abc mm^2. The “Average concentration of apple scab ascospores discharged in the overwintered leaves” value [3] was 39 ascospores/μl.
